Measured values published in patent publication US20230398130A1, “METHODS AND COMPOSITIONS FOR DIFFERENTIATING STEM CELLS” (Massachusetts Institute of Technology, priority 2020, published 2023).
Like-named read-outs stand apart in the source and are kept apart here.

Experiments:
[1] = tested on: human small intestinal organoids; experiment: Single-cell RNA-seq (Seq-Well S^3) of human small intestinal organoids with or without KPT-330; format: cell-based
Excerpt: To more completely explore the changes induced by KPT-330 in this human organoid model, and any donor associated effects, Applicants again utilized scRNA-seq via Seq-Well S^3. Applicants performed a comparison between untreated and KPT-330-treated organoids from each donor over a 6-day differentiation, with each sample consisting of single cells from >1,000 organoids. The resulting dataset consists of 2,484 cells. UMI, percent mitochondrial, and detected gene distributions are similar across samples, within acceptable quality bounds (genes >500, UMI<30,000, percent mitochondrial <35) (FIG. 60A).
For both, organoids at each sampling were harvested from 4-6 pooled Matrigel domes, totaling >1,000 organoids per sample. Excess Matrigel was removed per previously described washing protocol, and organoids were resuspended in TrypLE at 37 C for 15 min, with vigorous homogenization through a p200 pipette tip every 5 min. After 15 min, the suspension was passed through a 30 uM cell strainer twice, and counted under brightfield microscopy with trypan blue staining for viable single cells. For human organoid scRNA-seq, antibody-based cell hashing was performed, with all samples pooled following labeling and three washes in FACS buffer to remove excess antibody. Each sample was manually counted to equally weight in cell pools, and then the pool was split and processed as four identical samples.
Antibody hashed arrays were demultiplex with doublets and negative-staining cells removed following default settings of the Seurat function HTODemux.
Applicants performed integrated analysis on a combined dataset of 2,484 cells, with quality metrics for gene number, captured UMIs, and percent mitochondrial genes reported in Supp. […] Dimensional reduction and clustering was performed following normalization in Seurat V3 via SCTransform^71. Applicants performed variable gene identification and dimensionality reduction utilizing the first 18 principal components based on the elbow method to identify 7 clusters using Louvain clustering (Resolution=0.5). […]

[2] = tested on: small intestine; design: cycling cell number: dose or concentration left out as unconfirmed
Excerpt: FIG. 20—KPT-330 treatment in vivo.
FIG. 21A-21C—Analysis of samples collected from the mice of FIG. 20. A. Western blot for lysozyme of samples collected from the small intestine proximal region. B. Graph showing band intensity of the western blot in (A). C. Histological analysis of the distal small intestine from control and treated mice using immunohistochemistry for lysozyme.
FIG. 22—Analysis of samples collected from the mice of FIG. 20. […] Graphs showing Paneth cell, Goblet cell, and cycling cell numbers in the proximal and distal small intestines under each treatment condition using markers for each cell type.

[3] = tested on: human small intestinal organoids; experiment: Immunofluorescent imaging for LYZ, human small intestinal organoids; format: cell-based; conditions: 160 nM KPT-330, 6 days
Excerpt: (§2) To extend the observations from the murine organoid system, Applicants sought to examine how XPO1 inhibition via KPT-330 may effect human small intestinal stem cells by utilizing a stem-cell enriched human small intestinal organoid model^46 (see Methods).
Immunofluorescent imaging. For immunofluorescence staining of organoids, intestinal organoids in Matrigel were fixed with 4% paraformaldehyde, then transferred to centrifuge tube. After washing with PBS, the isolated organoids were permeabilized with 1% Triton X followed by incubation with blocking buffer (1% BSA+3% Donkey Serum+0.2% Triton X in PBS) at RT. The organoids were then stained with primary antibodies and fluorescent dye-labeled secondary antibodies as well as with DAPI. Slides were covered with […] ® Mounting Media (VECTOR). […] Images were acquired with a confocal laser scanning microscope (Nikon Eclipse 90i). For the analysis of Lysozyme+ cells per organoid area, the number of counted Lysozyme+ cells were normalized to measured organoid surface area. Image J was used for the data analysis.

[4] = tested on: ISC-enriched organoids; experiment: Primary screen, 384-well 2.5-D organoid differentiation (ENR+CD, 6 days): basal lysozyme secretion (LYZ.NS); format: cell-based, murine; conditions: strictly standardized mean difference, primary screen
Excerpt: High-throughput screening.

[5] = tested on: Paneth cells; experiment: Flow cytometry of 3D-cultured intestinal organoids (ENR+CD, 6 days): Paneth cell fraction (lysozyme-positive, CD24-mid); format: cell-based, murine
Method: Flow cytometry analysis (3D culture). ISC-enriched organoids cultured in 3D Matrigel with ENRCV media were passaged to 24-well plate in 3D Matrigel with ENRCV. At day zero, media were replaced to ENRCD with or without indicated compounds, and media were replaced every other day. […] Flow cytometry was performed using an LSR Fortessa (BD; Koch Institute Flow Cytometry Core at MIT). The data were analyzed using FlowJo v10 software.
Single live cells were selected by several gating strategies and Paneth cells were identified as lysozyme-high, CD24-mid, side scatter-high (SSC-high) (FIG. 27E). […] To evaluate whether the culture media supplements C and D may alter the effects of the 6 hits, Applicants also performed lysozyme assay in the canonical ENR culture condition in 3-D (because Paneth cells exist in an immature state within ENR, Applicants were unable to robustly quantify Paneth cell number via flow cytometry).
(§1) Flow cytometry. ISC-enriched organoids in 3D Matrigel culture were passaged to a 48-well plate and induced differentiation for 6 days by ENR+CD media containing DMSO or each drug indicated in the figures. DMSO- or drug-containing media were changed every other day. […] After vigorous pipetting and incubation at 37° C. for 15 min, the cell solution was diluted twice with basal media and centrifuged at 300 rcf for 3 min. […] The cell solution was centrifuged again at 300 rcf for 3 min at 4° C. to pellet the cells. […] Cells were centrifuged again for 3 min at 300 rcf and blocked with staining buffer (FACS buffer containing 0.5% Tween20 (Sigma, P2287)) for 15 min at RT in the dark. […] Flow cytometry was performed using an LSR Fortessa (BD; Koch Institute Flow Cytometry Core at MIT). Flow cytometry data were analyzed using FlowJo X v10.6.1 software.
Live Paneth cells were identified as LYZ-high, CD24-mid, side scatter-high (SSC-high) (FIG. 50F).
as §1, with “organoids in 3-D Matrigel culture” for “organoids in 3D Matrigel culture”, “to a 24- or 48-well plate” for “to a 48-well plate”

[6] = tested on: human small intestinal organoids; experiment: Lysozyme secretion assay, stem cell-enriched human small intestinal organoids; format: cell-based; conditions: increasing KPT-330 concentrations, 6 days, three duodenal donors
Excerpt: as §2
Human crypt isolation and organoid culture. Samples from adult human duodenum were collected for organoid culture in accordance with MGH IRB guidance. Human donor tissue was non-inflamed excess tissue collected during bulk surgical resection via MGH pathology. Crypts were isolated from bulk resections as follows. Bulk resections were cut into approximately 0.25 cm sections from epithelial surface, and washed in PBSO repeatedly by gently pipetting the fragments using a 10-ml pipette until the supernatant was clear. Fragments were rocked on ice with crypt isolation buffer (10 mM EDTA, 10 mM HEPES, 2% FCS in PBSO) for 30 min. After isolation buffer was removed, fragments were washed with cold PBSO by vigorous shaking to release the crypts, this process was repeated with reserved crypt-laden supernatant fractions 4-6 times or until supernatant was free of intact crypts (visual inspection). […]
Lysozyme secretion assay. […] The solution was replaced to a 96-well white microplate, and luminescent signals were measured by a microplate reader (infinite M200, Tecan).

[7] = tested on: ISC-enriched organoids; experiment: Secondary (validation) screen, 384-well 2.5-D, ENR+CD 6 days, n=8 wells, vs ENR+CD+DMSO control: ATP (CTG); format: cell-based, murine
[8] = tested on: ISC-enriched organoids; experiment: Secondary (validation) screen, 384-well 2.5-D, ENR+CD 6 days, n=8 wells, vs ENR+CD+DMSO control: carbachol-induced lysozyme secretion (LYZ.S); format: cell-based, murine

SMILES: O=C(/C=C\n1cnc(-c2cc(C(F)(F)F)cc(C(F)(F)F)c2)n1)NNc1cnccn1 [KPT-330]
- LYZ expression (scRNA-seq) ([1]; 160 nM KPT-330, 6 days, all donors): increased LYZ expression
- cell type composition (scRNA-seq) ([1]; 160 nM KPT-330, 6 days, pan-donor): decreases in cycling stem and progenitor populations, increases in quiescent progenitors and enterocytes
- XPO1 expression (scRNA-seq) ([1]; following KPT-330 treatment): compensatory increase in XPO1 expression
- Paneth cell number ([2]; distal small intestines, high dose): the high dose decreased Paneth cells
- cycling cell number ([2]; distal small intestines, low dose): significant increase in cycling cell number
- toxicity to mice ([2]; mouse, in vivo): toxic to mice
- Paneth cell number ([2]; proximal small intestines): no significant shift in Paneth cell number
- goblet cell numbers ([2]; proximal/distal small intestines): no significant shift in goblet cell numbers, but the trend was an increase
- LYZ+ cell abundance (IF imaging) [3]: increased LYZ+ cell abundance
- SSMD.LYZ.NS ([4]; 1st of the 4 dose lines of the treatment (dose not given)): 1.021
- SSMD.LYZ.NS ([4]; 2nd of the 4 dose lines of the treatment (dose not given)): −1.822
- SSMD.LYZ.NS ([4]; 3rd of the 4 dose lines of the treatment (dose not given)): −1.556
- SSMD.LYZ.NS ([4]; 4th of the 4 dose lines of the treatment (dose not given)): −1.714
- enrichment in mature Paneth cells at day 6 ([5]; KPT-330 treatment day 0-2 of 6-day ENR+CD differentiation): greatest enrichment in mature Paneth cells
- enrichment in mature Paneth cells at day 6 ([5]; KPT-330 treatment day 2-4): moderate enrichment
- enrichment in mature Paneth cells at day 6 (flow cytometry) ([5]; KPT-330 treatment day 4-6): no different than untreated
- mature Paneth cell population within organoids ([5]; hit compound at most potent dose from 2.5-D screening, ENR+CD 6 days, 3-D culture, vs control): significantly enhanced the mature Paneth cell population
- normalized LYZ secretion [6]: normalized LYZ secretion significantly increases with dose
- Z.CTG ([7]; Dose 0.02 uM): 1.135
- repSSMD.CTG ([7]; Dose 0.02 uM): 0.959
- Z.CTG ([7]; Dose 0.04 uM): 0.263
- repSSMD.CTG ([7]; Dose 0.04 uM): 0.179
- Z.CTG ([7]; dose 0.08 uM): 1.273
- repSSMD.CTG ([7]; dose 0.08 uM): 0.916
- Z.LYZ.S ([8]; Dose 0.02 uM): −0.028
- repSSMD.LYZ.S ([8]; Dose 0.02 uM): −0.044
- Z.LYZ.S ([8]; Dose 0.04 uM): −0.587
- repSSMD.LYZ.S ([8]; Dose 0.04 uM): −0.955
- Z.LYZ.S ([8]; dose 0.08 uM): 1.031
- repSSMD.LYZ.S ([8]; dose 0.08 uM): 1.678
- increase in LYZ.S (stimulated LYZ secretion) relative to ENR+CD control ([8]; validated doses, secondary screen): 50-75%
